How the values were obtained:
[1] = system: SH-SY5Y cells; experiment: Release of dopamine by SH-SY5Y cells (Example 1); type: cell-based, Human; conditions: for T/C [%] release of dopamine: 3 minutes, normalised to control
Description: (§1) Human neuroblastoma cells (SH-SY5Y, ATCC number CRL-2266) are used as the cell model. Cultivation takes place at 37° C. and 5% CO2 content with a mixture consisting of equal parts of Eagle's Minimum Essential Medium (MEM) and F12 medium (in each case with 10% FBS and 1% penicillin/streptomycin). For measurement of the release of dopamine and serotonin, the cells are harvested with trypsin and, after a vitality test by trypan blue staining, are sown in a defined cell number in 35 mm cell culture dishes.
Method for measuring the release of dopamine:
After stimulation of 1.25*10^6 human neuroblastoma cells (SH-SY5Y) for 3 minutes with 350 μl of Krebs-Ringer HEPES buffer, pH 5, with or without addition of N-nonanoylvanillylamine (wherein in the case of addition of N-nonanoylvanillylamine, concentrations of 0.1 μM, 1 μM and 10 μM are established in the Krebs-Ringer HEPES buffer), the supernatant is acidified with 1 N HCl and the dopamine content is determined by means of an enzyme-based detection method (dopamine ELISA, DLD Diagnostica, Hamburg, Germany). The cells are lysed with a buffer containing sodium lauryl sarcosinate, and the DNA content is determined by means of a NanoQuant plate (Tecan, Ménnendorf, Switzerland) for normalisation of the dopamine release. In the case of an ethanol control (EtOH control), no N-nonanoylvanillylamine is added to the Krebs-Ringer HEPES buffer, but ethanol is added to the buffer so that a 0.1% ethanolic Krebs-Ringer HEPES buffer solution is obtained. In the case of the positive control, acetylcholine is used instead of the N-nonanoylvanillylamine, a concentration of 100 μM acetylcholine being established in the Krebs-Ringer HEPES buffer.

[2] = system: SH-SY5Y cells; experiment: Release of serotonin by SH-SY5Y cells (Example 3); type: cell-based, Human; conditions: for T/C [%] release of serotonin: normalised to control
Description: as §1
After stimulation of 1.25*10^6 human neuroblastoma cells (SH-SY5Y) for 3 minutes with 300 μl of Krebs-Ringer HEPES buffer, 0.1% ascorbic acid, pH 6.2, with or without addition of N-nonanoylvanillylamine (wherein in the case of addition of N-nonanoylvanillylamine, concentrations of 0.01 μM, 0.1 μM, 1 μM and 10 μM are established in the Krebs-Ringer HEPES buffer), the serotonin content is determined by means of an enzyme-based detection method (serotonin ELISA sensitive, […], Hamburg, Germany). The cells are lysed with a buffer containing sodium lauryl sarcosinate, and the DNA content is determined by means of a NanoQuant plate (Tecan, Ménnendorf, Switzerland) for normalisation of the serotonin release.

[3] = system: SH-SY5Y cells; experiment: Release of dopamine by SH-SY5Y cells with N-nonanoylvanillylamine and a TRPV1 inhibitor (Example 2); type: cell-based, Human
Description: as §1
After stimulation of 1.25*10^6 human neuroblastoma cells (SH-SY5Y) for 3 minutes with 350 μl of Krebs-Ringer HEPES buffer, pH 5, with or without addition of 1 μM N-nonanolyvanillylamine (wherein in the case of addition of N-nonanoylvanillylamine, a concentration of 1 μM is established in the Krebs-Ringer HEPES buffer) in combination with different application-relevant amounts of the selective TRPV1 inhibitor trans-4-tert-butylcyclohexanol (so that concentrations of 25, 50 and 80 μM of trans-4-tert-butylcyclo-hexanol are established in the Krebs-Ringer HEPES buffer), the supernatant is acidified with 1 N HCl and the dopamine content is determined by means of an enzyme-based detection method (dopamine ELISA, DLD Diagnostica, Hamburg, Germany). The cells are lysed with a buffer containing sodium lauryl sarcosinate, and the DNA content is determined by means of a NanoQuant plate (Tecan, Ménnendorf, Switzerland) for normalisation of the dopamine release. For comparison purposes, the tests were repeated without the addition of N-nonanoylvanillylamine.

[4] = system: SH-SY5Y cells; experiment: Release of serotonin by SH-SY5Y cells with N-nonanoylvanillylamine and a TRPV1 inhibitor (Example 4); type: cell-based, Human
Description: as §1
After stimulation of 1.25*10^6 human neuroblastoma cells (SH-SY5Y) for 3 minutes with 300 μl of Krebs-Ringer HEPES buffer (0.1% ascorbic acid, pH 6.2), with or without addition of N-nonanoylvanillylamine (so that a concentration of 1 μM N-nonanoylvanillylamine is established in the Krebs-Ringer HEPES buffer) in combination with different application-relevant amounts of the selective TRPV1 inhibitor trans-4-tert-butylcyclohexanol, the serotonin content is determined by means of an enzyme-based detection method (serotonin ELISA sensitive, DLD Diagnostica, Hamburg, Germany). The cells are lysed with a buffer containing sodium lauryl sarcosinate, and the DNA content is determined by means of a NanoQuant plate in a plate reader (Tecan, Ménnendorf, Switzerland) for normalisation of the serotonin release.

[5] = Kollmannsberger 2007; cited from earlier work
[6] = cited from earlier work
[7] = N-nonanoylvanillylamine 1 μM + 25 μM trans-4-tert-butylcyclohexanol
[8] = N-nonanoylvanillylamine 1 μM + 50 μM trans-4-tert-butylcyclohexanol
[9] = N-nonanoylvanillylamine 1 μM + 80 μM trans-4-tert-butylcyclohexanol
[10] = N-nonanoylvanillylamine 1 μM alone
[11] = 25 μM alone, without N-nonanoylvanillylamine
[12] = 50 μM alone, without N-nonanoylvanillylamine
[13] = 80 μM alone, without N-nonanoylvanillylamine

For `CC(=O)OCC[N+](C)(C)C` [Acetylcholine, acetylcholine, reference compound], the “T/C [%] release of dopamine” value ([1]; 100 μM (positive control)) was 139.84%.
With `[Cl-].[K+]` [KCl, potassium chloride, reference compound] the “T/C [%] release of serotonin” value ([2]; 50 mM (positive control)) was 153.48%.
For `CCCCCCCCC(=O)NCc1ccc(O)c(OC)c1` [N-Nonanoylvanillylamine], the “T/C [%] release of dopamine” value ([1]; 0.1 μM) was 697.84%, the “increase in the amount of dopamine released by SH-SY5Y cells” value ([1]; 100 nM) was “seven-fold increase” and the “T/C [%] release of dopamine” value ([1]; 1 μM) was 1350.94%. The “T/C [%] release of dopamine” value ([1]; 10 μM) was 1774.98%, the “stimulating the release of dopamine, compared with the respective control” value ([1]; approximately 0.03 mg/kg (0.1 μM)) was “about 700%” and the “increase in the amount of dopamine released” value ([3]; 1 μM) was “five-fold increase”. For the same molecule, the “influence of simultaneous stimulation with TRPV1 inhibitor trans-4-tert-butylcyclohexanol on the dopamine release” value ([3]; 1 μM N-nonanoylvanillylamine, inhibitor 25, 50 and 80 μM) was “not significantly influenced”, the “T/C [%] release of dopamine” value [3, 7] was 433.55% and the “T/C [%] release of dopamine” value [3, 8] was 456.80%. For the same molecule, the “T/C [%] release of dopamine” value [3, 9] was 422.48%, the “T/C [%] release of dopamine” value [3, 10] was 501.20% and the “T/C [%] release of serotonin” value ([2]; 0.01 μM, 3 minutes) was 191.35%. For the same molecule, the “amount of serotonin released by SH-SY5Y cells” value ([2]; 0.1 μM and above, p<0.005) was “increases highly significantly”, the “T/C [%] release of serotonin” value ([2]; 0.1 μM, 3 minutes) was 226.44% and the “T/C [%] release of serotonin” value ([2]; 1 μM, 3 minutes) was 272.12%. The “T/C [%] release of serotonin” value ([2]; 10 μM, 3 minutes) was 185.65%, the “stimulating the release of serotonin in neurons, maximum, compared with the respective control” value ([2]; concentration range 0.01 μM to 10 μM (0.003 mg/kg to 3 mg/kg)) was “about 270%” and the “influence of addition of TRPV1 inhibitor trans-4-tert-butylcyclohexanol on the serotonin release” value ([4]; 1 μM N-nonanoylvanillylamine) was “not significantly influenced”. The “T/C [%] release of serotonin” value [4, 7] was 154.86%, the “T/C [%] release of serotonin” value [4, 8] was 128.74% and the “T/C [%] release of serotonin” value [4, 9] was 140.81%. For the same molecule, the “T/C [%] release of serotonin” value ([4]; N-nonanoylvanillylamine 1 μM + 200 μM trans-4-tert-butylcyclohexanol) was 181.93%, the “T/C [%] release of serotonin” value [4, 10] was 151.75% and the detection threshold [5] was 0.107 mg/kg. The stimulant threshold [5] was 0.054 mg/kg and the EFSA safety rating ([6]; rated in FGE.86) was “no safety concern”.
For `COc1cc(CNC(=O)CCCC/C=C/C(C)C)ccc1O` [capsaicin, reference compound], the rating for genotoxicity ([6]; EFSA / Scientific Committee on Food opinion 2002) is listed as “negatively rated as having genotoxic potential”.
With `CC(C)(C)[C@H]1CC[C@H](O)CC1` [trans-4-tert-butylcyclohexanol, reference compound] the “T/C [%] release of dopamine” value [3, 11] was 84.47%, the “T/C [%] release of dopamine” value [3, 12] was 38.19% and the “T/C [%] release of dopamine” value [3, 13] was 63.53%. The “T/C [%] release of serotonin” value [4, 11] was 91.07%, the “T/C [%] release of serotonin” value [4, 12] was 101.39% and the “T/C [%] release of serotonin” value [4, 13] was 84.129%. The “T/C [%] release of serotonin” value ([4]; 200 μM alone, without N-nonanoylvanillylamine) was 110.99%.

Reference: US20130178534A1, “N-Nonanoylvanillylamine as an agent for reducing the appetite, as an agent for imparting a feeling of fullness and as a mood enhancer, and corresponding substance mixtures, orally consumable products and methods” (Symrise AG, priority 2012, published 2013)
